Laboratory results from patent publication US20240309015A1, “Methods for the Treatment of Fibrotic Disease” (SHY Therapeutics, LLC, priority 2021, published 2024).

How the values were obtained:
KRas wild type = assay: Ras GTP Binding Domain Inhibition Assay, KRas wild type; settings: at 20 μM; for KRas wild type + SOS: % inh.: with SOS; for KRas wild type: % inh.: without SOS
Procedure: (§1) A Ras Superfamily Activity Assay (as disclosed in International Application No. PCT/US2018/038613, filed Jun. 20, 2018, which is incorporated by reference in its entirety) was used as a specific assay to evaluate compounds against the following for the following Ras Superfamily proteins: KRas wild type, KRas Q61H mutant, KRas G12C mutant, KRas G12D mutant, Rac-1, and Rho-A.
(§2) Buffer-I: • 25 mM Tris-HCl, pH 7.4 • 27 mM KCl • 137 mM NaCl • 1 mM MgCl2 • 1 mM DTT
(§3) Buffer-IL: • 50 mM Tris-HCl, pH 7.0 • 1 mM MgCl2 • 1 mM DTT
(§4) The small GTPases proteins: KRas wild type. KRas Q61H mutant, KRas G12C mutant, KRas G12D mutants, Rac-1, and Rho-A were expressed as His-tagged proteins. In addition, the Guanosine nucleotide Exchange Factor (GEF) Sos protein (residues 556-1049) was expressed as a His-tagged protein. In cells, the guanine nucleotide exchange factor Sos protein promotes activation of Ras proteins by stimulating an exchange of GDP for GTP. The inclusion of Sos to the Ras GTP binding domain inhibition assay may be considered as an alternative representation of physiological cellular conditions for evaluating the inhibitory activity of some of the tested small molecules.
(§5) For the assay, all purified small GTPases proteins were diluted in Buffer-I or Buffer-II to a final concentration of 10-30 μg/mL. 200 μL of each diluted protein was added to a nickel-coated 96-well plate and incubated overnight at 4° C. Then the protein solution was discarded and 200 μL of Buffer-I or Buffer-II was added to each well in the presence of 1% DMSO. Compounds to be tested were added to the protein-coated wells at final concentration of 20 μM, and incubated for 3 hours at room temperature with and without 10-30 μg/mL of Sos added to the final hour of the incubation. When performing IC50 measurements a serial dilution of all tested concentrations was added. Then Cy3-GTP or Cy5-GTP was added to each well to a final concentration of 100 nM. The labeled GTP was incubated for 45 minutes at room temperature. Following GTP incubation, wells were washed 3× in Buffer-I or Buffer-II and 200 μL of Buffer-I or Buffer-II was added to each well. Following washes, the amount of bound labeled-GTP was measured using a SpectraMax M3 (Molecular Devices).

KRas G12D mutant = assay: Ras GTP Binding Domain Inhibition Assay, KRas G12D mutant; settings: at 20 μM; for KRas G12D mutant + SOS: % inh.: with SOS; for KRas G12D mutant: % inh.: without SOS
Procedure: as §1, §2, §3, §4, §5

KRas G12C mutant = assay: Ras GTP Binding Domain Inhibition Assay, KRas G12C mutant; settings: at 20 μM; for KRas G12C mutant + SOS: % inh.: with SOS; for KRas G12C mutant: % inh.: without SOS
Procedure: as §1, §2, §3, §4, §5

Rho-A = assay: Ras GTP Binding Domain Inhibition Assay, Rho-A; settings: at 20 μM; for Rho-A + SOS: % inh.: with SOS; for Rho-A: % inh.: without SOS
Procedure: as §1, §2, §3, §4, §5

| SMILES | KRas wild type + SOS: % inh. (KRas wild type) | KRas wild type: % inh. (KRas wild type) | KRas G12D mutant + SOS: % inh. (KRas G12D mutant; Table 7) | KRas G12D mutant + SOS: % inh. (KRas G12D mutant; Table 8) | KRas G12D mutant: % inh. (KRas G12D mutant; Table 7) | KRas G12D mutant: % inh. (KRas G12D mutant; Table 8) | KRas G12C mutant + SOS: % inh. (KRas G12C mutant) | KRas G12C mutant: % inh. (KRas G12C mutant) | Rho-A + SOS: % inh. (Rho-A) | Rho-A: % inh. (Rho-A) |
| --- | --- | --- | --- | --- | --- | --- | --- | --- | --- | --- |
| COc1cccc(-c2sc3nc(-c4nccn4C)nc(NC4CCC(OC)C4)c3c2C)c1F (racemic) [Compound 10, rac-6-(2-Fluoro-3-methoxyphenyl)-N-((1R,3S)-3-methoxycyclopentyl)-5-methyl-2-(1-methyl-1H-imidazol-2-yl)thieno[2,3-d]pyrimidin-4-amine and rac-6-(2-Fluoro-3-methoxyphenyl)-N-((1R,3R)-3-methoxycyclopentyl)-5-methyl-2-(1-methyl-1H-imidazol-2-yl)thieno[2,3-d]pyrimidin-4-amine] | C (C = 46-75% inhibition) | C (C = 46-75% inhibition) | C (C = 46-75% inhibition) | C (C = 46-75% inhibition) | D (D = 76-100% inhibition) | D (D = 76-100% inhibition) | C (C = 46-75% inhibition) | D (D = 76-100% inhibition) | D (D = 76-100% inhibition) | D (D = 76-100% inhibition) |
| CO[C@H]1CC[C@@H](Nc2nc(-c3nccn3C)nc3sc(-c4ccn(C(C)C)n4)c(C)c23)C1 (racemic) [Compound 12, rac-6-(1-Isopropyl-1H-pyrazol-3-yl)-N-((1R,3S)-3-methoxycyclopentyl)-5-methyl-2-(1-methyl-1H-imidazol-2-yl)thieno[2,3-d]pyrimidin-4-amine] | D (D = 76-100% inhibition) | D (D = 76-100% inhibition) | C (C = 46-75% inhibition) | C (C = 46-75% inhibition) | C (C = 46-75% inhibition) | C (C = 46-75% inhibition) | D (D = 76-100% inhibition) | C (C = 46-75% inhibition) | D (D = 76-100% inhibition) | D (D = 76-100% inhibition) |
| COCCNc1nc(-c2nccn2C)nc2sc(-c3ccccc3)c(-c3ccccc3)c12 [Compound 1, N-(2-Methoxyethyl)-2-(1-methyl-1H-imidazol-2-yl)-5,6-diphenylthieno[2,3-d]pyrimidin-4-amine] | A (A = 1-25% inhibition) | A (A = 1-25% inhibition) | A (A = 1-25% inhibition) | A (A = 1-25% inhibition) | D (D = 76-100% inhibition) | D (D = 76-100% inhibition) |  | C (C = 46-75% inhibition) |  | C (C = 46-75% inhibition) |
| COCCN(C)c1nc(-c2nccn2C)nc2sc(-c3ccccc3)c(-c3ccccc3)c12 [Compound 2, N-(2-Methoxyethyl)-N-methyl-2-(1-methyl-1H-imidazol-2-yl)-5,6-diphenylthieno[2,3-d]pyrimidin-4-amine] |  | C (C = 46-75% inhibition) |  |  | C (C = 46-75% inhibition) | C (C = 46-75% inhibition) |  | B (B = 26-45% inhibition) |  | B (B = 26-45% inhibition) |
| COCCCNc1nc(-c2nccn2C)nc2sc(-c3ccccc3)c(-c3ccccc3)c12 [Compound 3, N-(3-Methoxypropyl)-2-(1-methyl-1H-imidazol-2-yl)-5,6-diphenylthieno[2,3-d]pyrimidin-4-amine] | A (A = 1-25% inhibition) | C (C = 46-75% inhibition) | A (A = 1-25% inhibition) | A (A = 1-25% inhibition) | C (C = 46-75% inhibition) | C (C = 46-75% inhibition) |  | C (C = 46-75% inhibition) |  | C (C = 46-75% inhibition) |
| COCCNc1nc(-c2nccn2C)nc2sc(-c3ccccc3)c(-c3ccccc3Cl)c12 [Compound 4, 5-(2-Chlorophenyl)-N-(2-methoxyethyl)-2-(1-methyl-1H-imidazol-2-yl)-6-phenylthieno[2,3-d]pyrimidin-4-amine] |  | A (A = 1-25% inhibition) |  |  | B (B = 26-45% inhibition) | B (B = 26-45% inhibition) |  | B (B = 26-45% inhibition) |  | B (B = 26-45% inhibition) |
| COC1CCN(c2nc(-c3nccn3C)nc3sc(-c4ccn(C)n4)c(-c4ccccc4)c23)CC1 [Compound 6, 4-(4-Methoxypiperidin-1-yl)-2-(1-methyl-1H-imidazol-2-yl)-6-(1-methyl-1H-pyrazol-3-yl)-5-phenylthieno[2,3-d]pyrimidine] | B (B = 26-45% inhibition) | 0 (0 = 0% inhibition) | B (B = 26-45% inhibition) | B (B = 26-45% inhibition) | B (B = 26-45% inhibition) | B (B = 26-45% inhibition) | C (C = 46-75% inhibition) | B (B = 26-45% inhibition) | 0 (0 = 0% inhibition) | 0 (0 = 0% inhibition) |
| COCCNc1nc(-c2cn(C)cn2)nc2sc(-c3cccc(OC)c3Cl)c(-c3ccc(OC)cc3)c12 [Compound 8, 6-(2-Chloro-3-methoxyphenyl)-N-(2-methoxyethyl)-5-(4-methoxyphenyl)-2-(1-methyl-1H-imidazol-4-yl)thieno[2,3-d]pyrimidin-4-amine] | D (D = 76-100% inhibition) | C (C = 46-75% inhibition) | B (B = 26-45% inhibition) | B (B = 26-45% inhibition) | B (B = 26-45% inhibition) | B (B = 26-45% inhibition) | D (D = 76-100% inhibition) | B (B = 26-45% inhibition) | C (C = 46-75% inhibition) | C (C = 46-75% inhibition) |
| CO[C@@H]1CC[C@H](Nc2nc(-c3nccn3C)nc3sc(-c4ccn(C(C)C)n4)c(-c4ccccc4)c23)C1 [Compound 11, 6-(1-Isopropyl-1H-pyrazol-3-yl)-N-((1S,3R)-3-methoxycyclopentyl)-2-(1-methyl-1H-imidazol-2-yl)-5-phenylthieno[2,3-d]pyrimidin-4-amine] | D (D = 76-100% inhibition) | C (C = 46-75% inhibition) | C (C = 46-75% inhibition) | C (C = 46-75% inhibition) | C (C = 46-75% inhibition) | C (C = 46-75% inhibition) | D (D = 76-100% inhibition) | C (C = 46-75% inhibition) | B (B = 26-45% inhibition) | B (B = 26-45% inhibition) |
